Measured values published in patent US7785828B1 (priority 2003, dated 2010).

Legend:
Assay type in all cases: cell-based
Fusarium graminearum = system: Fusarium graminearum
Septoria tritici = system: Septoria tritici
Mycosphaerella fijiensis = system: Mycosphaerella fijiensis

| Sequence | Antifungal activity, Fusarium graminearum (improvement compared to DmAMP1) (Fusarium graminearum) | Antifungal activity, Septoria tritici (improvement compared to DmAMP1) (Septoria tritici) | Antifungal activity, Mycosphaerella fijiensis (improvement compared to DmAMP1) (Mycosphaerella fijiensis) |
| --- | --- | --- | --- |
| NLCERASKTWSGNCGNTKHCDNQCKSWEGAAHGACHKRNGKWKCFCYFNC (Defensin like) [L9-18] | ++ (key: + indicating 1- to 5-fold improvement compared to DmAMP1; ++ indicating >5- to 10-fold improvement; +++ indicating >10-fold improvement) | ++ (key: + indicating 1- to 5-fold improvement compared to DmAMP1; ++ indicating >5- to 10-fold improvement; +++ indicating >10-fold improvement) | + (key: + indicating 1- to 5-fold improvement compared to DmAMP1; ++ indicating >5- to 10-fold improvement; +++ indicating >10-fold improvement) |
| NLCERASKTWSGNCGNTKHCDNQCKSWEGAAHGACHVRNGKHKCFCYFNC (Defensin like) [L6-61] | +++ (key: + indicating 1- to 5-fold improvement compared to DmAMP1; ++ indicating >5- to 10-fold improvement; +++ indicating >10-fold improvement) | ++ (key: + indicating 1- to 5-fold improvement compared to DmAMP1; ++ indicating >5- to 10-fold improvement; +++ indicating >10-fold improvement) | + (key: + indicating 1- to 5-fold improvement compared to DmAMP1; ++ indicating >5- to 10-fold improvement; +++ indicating >10-fold improvement) |
| NLCERASKTWSGNCGNTKHCDNQCRNWEGAKHGACHKRSGKWKCFCYFNC (Defensin like) [L9-30] | ++ (key: + indicating 1- to 5-fold improvement compared to DmAMP1; ++ indicating >5- to 10-fold improvement; +++ indicating >10-fold improvement) | + (key: + indicating 1- to 5-fold improvement compared to DmAMP1; ++ indicating >5- to 10-fold improvement; +++ indicating >10-fold improvement) | + (key: + indicating 1- to 5-fold improvement compared to DmAMP1; ++ indicating >5- to 10-fold improvement; +++ indicating >10-fold improvement) |
| NLCERASKTWSGNCGNTKHCDNQCRNWEGAKHGACHVRNGKWKCFCYFNC [L6-40] (Defensin like) | +++ (key: + indicating 1- to 5-fold improvement compared to DmAMP1; ++ indicating >5- to 10-fold improvement; +++ indicating >10-fold improvement) | +++ (key: + indicating 1- to 5-fold improvement compared to DmAMP1; ++ indicating >5- to 10-fold improvement; +++ indicating >10-fold improvement) | + (key: + indicating 1- to 5-fold improvement compared to DmAMP1; ++ indicating >5- to 10-fold improvement; +++ indicating >10-fold improvement) |
| NLCERASKTWSGNCGNTKHCDNQCRSWEGAKHGACHVRSGKHKCFCYFNC (Defensin like) [L9-16] | +++ (key: + indicating 1- to 5-fold improvement compared to DmAMP1; ++ indicating >5- to 10-fold improvement; +++ indicating >10-fold improvement) | ++ (key: + indicating 1- to 5-fold improvement compared to DmAMP1; ++ indicating >5- to 10-fold improvement; +++ indicating >10-fold improvement) | + (key: + indicating 1- to 5-fold improvement compared to DmAMP1; ++ indicating >5- to 10-fold improvement; +++ indicating >10-fold improvement) |
| NLCERASKTWSGNCGNTKHCDTQCKNWEGAAHGACHKRNGKWKCFCYFNC (Defensin like) [L9-13] | ++ (key: + indicating 1- to 5-fold improvement compared to DmAMP1; ++ indicating >5- to 10-fold improvement; +++ indicating >10-fold improvement) | + (key: + indicating 1- to 5-fold improvement compared to DmAMP1; ++ indicating >5- to 10-fold improvement; +++ indicating >10-fold improvement) | + (key: + indicating 1- to 5-fold improvement compared to DmAMP1; ++ indicating >5- to 10-fold improvement; +++ indicating >10-fold improvement) |
| NLCERASKTWSGNCGNTKHCDTQCKNWEGAKHGACHKRSGKWMCFCYFNC (Defensin like) [L3-144] | ++ (key: + indicating 1- to 5-fold improvement compared to DmAMP1; ++ indicating >5- to 10-fold improvement; +++ indicating >10-fold improvement) | + (key: + indicating 1- to 5-fold improvement compared to DmAMP1; ++ indicating >5- to 10-fold improvement; +++ indicating >10-fold improvement) | + (key: + indicating 1- to 5-fold improvement compared to DmAMP1; ++ indicating >5- to 10-fold improvement; +++ indicating >10-fold improvement) |
| NLCERASKTWSGNCGNTKHCDTQCKNWEGAKHGACHVRNGKHKCFCYFNC (Defensin like) [L6-83] | +++ (key: + indicating 1- to 5-fold improvement compared to DmAMP1; ++ indicating >5- to 10-fold improvement; +++ indicating >10-fold improvement) | + (key: + indicating 1- to 5-fold improvement compared to DmAMP1; ++ indicating >5- to 10-fold improvement; +++ indicating >10-fold improvement) | + (key: + indicating 1- to 5-fold improvement compared to DmAMP1; ++ indicating >5- to 10-fold improvement; +++ indicating >10-fold improvement) |
| NLCERASKTWSGNCGNTKHCDTQCKSWEGAAHGACHVRNGKHKCFCYFNC (Defensin like) [L6-27] | +++ (key: + indicating 1- to 5-fold improvement compared to DmAMP1; ++ indicating >5- to 10-fold improvement; +++ indicating >10-fold improvement) | +++ (key: + indicating 1- to 5-fold improvement compared to DmAMP1; ++ indicating >5- to 10-fold improvement; +++ indicating >10-fold improvement) | + (key: + indicating 1- to 5-fold improvement compared to DmAMP1; ++ indicating >5- to 10-fold improvement; +++ indicating >10-fold improvement) |
| NLCERASKTWSGNCGNTKHCDTQCKSWEGAKHGACHVRNGKHKCFCYFNC (Defensin like) [L9-26] | +++ (key: + indicating 1- to 5-fold improvement compared to DmAMP1; ++ indicating >5- to 10-fold improvement; +++ indicating >10-fold improvement) | +++ (key: + indicating 1- to 5-fold improvement compared to DmAMP1; ++ indicating >5- to 10-fold improvement; +++ indicating >10-fold improvement) | ++ (key: + indicating 1- to 5-fold improvement compared to DmAMP1; ++ indicating >5- to 10-fold improvement; +++ indicating >10-fold improvement) |
| NLCERASKTWSGNCGNTKHCDTQCRNWEGAAHGACHKRNGKWKCFCYFNC (Defensin like) [L6-12] | +++ (key: + indicating 1- to 5-fold improvement compared to DmAMP1; ++ indicating >5- to 10-fold improvement; +++ indicating >10-fold improvement) | + (key: + indicating 1- to 5-fold improvement compared to DmAMP1; ++ indicating >5- to 10-fold improvement; +++ indicating >10-fold improvement) | + (key: + indicating 1- to 5-fold improvement compared to DmAMP1; ++ indicating >5- to 10-fold improvement; +++ indicating >10-fold improvement) |
| NLCERASKTWSGNCGNTKHCDTQCRNWEGAAHGACHVRNGKHKCFCYFNC (NLCERASKTWSGNCGNTKHCDTQCKNWEGAAHGACHVRNGKHKCFCYFNC; Defensin like) [L6-57] | +++ (key: + indicating 1- to 5-fold improvement compared to DmAMP1; ++ indicating >5- to 10-fold improvement; +++ indicating >10-fold improvement) | + (key: + indicating 1- to 5-fold improvement compared to DmAMP1; ++ indicating >5- to 10-fold improvement; +++ indicating >10-fold improvement) | ++ (key: + indicating 1- to 5-fold improvement compared to DmAMP1; ++ indicating >5- to 10-fold improvement; +++ indicating >10-fold improvement) |
| NLCERASKTWSGNCGNTKHCDTQCRNWEGAKHGACHKRNGKWKCFCYFNC (Defensin like) [L9-32] | ++ (key: + indicating 1- to 5-fold improvement compared to DmAMP1; ++ indicating >5- to 10-fold improvement; +++ indicating >10-fold improvement) | + (key: + indicating 1- to 5-fold improvement compared to DmAMP1; ++ indicating >5- to 10-fold improvement; +++ indicating >10-fold improvement) | + (key: + indicating 1- to 5-fold improvement compared to DmAMP1; ++ indicating >5- to 10-fold improvement; +++ indicating >10-fold improvement) |
| NLCERASKTWSGNCGNTKHCDTQCRNWEGAKHGACHKRSGKWKCFCYFNC (Defensin like) [L9-09] | +++ (key: + indicating 1- to 5-fold improvement compared to DmAMP1; ++ indicating >5- to 10-fold improvement; +++ indicating >10-fold improvement) | + (key: + indicating 1- to 5-fold improvement compared to DmAMP1; ++ indicating >5- to 10-fold improvement; +++ indicating >10-fold improvement) | + (key: + indicating 1- to 5-fold improvement compared to DmAMP1; ++ indicating >5- to 10-fold improvement; +++ indicating >10-fold improvement) |
| NLCERASKTWSGNCGNTKHCDTQCRNWEGAKHGACHVRSGKHKCFCYFNC (Defensin like) [L9-27] | ++ (key: + indicating 1- to 5-fold improvement compared to DmAMP1; ++ indicating >5- to 10-fold improvement; +++ indicating >10-fold improvement) | ++ (key: + indicating 1- to 5-fold improvement compared to DmAMP1; ++ indicating >5- to 10-fold improvement; +++ indicating >10-fold improvement) | ++ (key: + indicating 1- to 5-fold improvement compared to DmAMP1; ++ indicating >5- to 10-fold improvement; +++ indicating >10-fold improvement) |
